Data reported in US20040030131A1, “Pharmaceutical compounds” (priority 2000, published 2004).

Which melting point does the source give for `CN(C)CC1=C(c2ccc3sccc3c2)C2CCC(C1)C2.Cl` (stereo not shown) here?
The melting point was 57.8 °C.

With `CNCC1=C(c2ccc3scc(C)c3c2)C2CCC(C1)C2.Cl` (stereo not shown) as the compound, how does the melting point read?
The melting point was 204.5 to 206.7 °C.

Which melting point does the source give for `Cc1cc2cc(C3=C(CN(C)C)C4CCC3C4)ccc2s1.Cl` (racemic) here?
Its melting point is 179.5 to 181.6 °C.

With `CN(C)CC1=C(c2cc3cc(F)ccc3s2)C2CCC(C1)C2.Cl` (racemic) as the compound, how does the melting point read?
The melting point was 207.4 to 211.1 °C.

For `COc1cccc2sc(C3=C(CN(C)C)C4CCC3C4)cc12.Cl` (racemic), which melting point is on record?
Its melting point is 239 to 242 °C.

Which melting point does the source give for `COc1cccc2cc(C3=C(CN(C)C)C4CCC3C4)sc12.Cl` (racemic) here?
The melting point was 232 to 235 °C.

For `CN(C)CC1=C(c2cccc3sccc23)C2CCC1C2` (racemic) [Example 15, (+/−)-((3-(Benzo[b]thiophen-4-yl)bicyclo[2.2.1]-hept-2-en-2-yl)methyl)dimethylamine], which melting point is on record?
Its melting point is 73.5 to 76.9 °C.
